Measured values as given in patent US20080051438A1, “Preventive/Therapeutic Compositions Useful for Treating Cardiovascular Diseases” (priority 2006, published 2008).

Experiments:
Assay type in all cases: in vivo, human
hypertensive patients [1] = assay: Special investigation of combined use of cilnidipine and ARB: degree of the blood pressure controls judged by the doctor (efficacy ratio); parameters: concentration or dose not given beside the values; conditions: named ARB alone, then cilnidipine additionally administered, kind of ARB unchanged; blood pressure control in the 12th week
Experimental: (§1) A special investigation was conducted in various medical centers, compiled, and analyzed to evaluate the safety and availability of the combined use of cilnidipine and at least one angiotensin II receptor blocker.
(§2) The subjects of the investigation were hypertensive patients which were adapted to cilnidipine. Combined administration of cilnidipine and ARB was started for the treatment of hypertension in these patients.
(§3) A prospective continuous investigation method was conducted. Such a method is continuously conducted with the registered cases with the combined administration of cilnidipine (Atelec®) and ARB, until the number of cases reaches the contracted cases for each center.
(§4) Regarding the administration method of cilnidipine, 5 to 10 mg of cilnidipine was orally administered after breakfast once a day. Meanwhile, the amount may increase or decrease depending on patient's age, symptoms, or the like. When the effect is insufficient, the amount can be increased to 20 mg once a day. The dosing period of cilnidipine was set to 12 weeks in principle.
(§5) The following items were tracked during the investigation: patient's background (sex), existence or nonexistence of previous therapeutic agents and the content thereof, targeted blood pressure (systolic BP/diastolic BP), the conditions of administration of cilnidipine and ARB, antihypertensives used in combination (those other than cilnidipine or ARB), clinical course (systolic BP/diastolic BP/heart rate), and occurrence of side-effects. As for the availability of the combined administration, in the 12th week after starting the combined administration, the doctor in attendance judged the degree of the blood pressure controls on a three-point scale of “well-controlled”, “nearly well-controlled” and “poorly-controlled”, referring to the changes in the systolic and diastolic BP. As for the safety and availability analysis for each patient background, Fisher's exact probability test or the X^2 test was used. As for the blood pressure and heart rate, the average value and the standard deviation were calculated for the subjects before the combined administration (within 4 weeks before starting the combined administration), and data after starting the combined administration were determined on each observation day, and analysis was conducted by using a paired t-test. The test was conducted as the two-sided test and less than 5% of the risk rate was regarded as significant. Furthermore, side-effects were compiled based on the naming of preferred terms (PT) of MedDRA/J ver 8.0.
As the index of availability, in the 12th week after starting the combined administration, the doctor in attendance judged the degree of the blood pressure controls on a three-point scale of “well-controlled”, “nearly well-controlled” and “poorly-controlled”.
(1) Among the 2919 cases in the availability analysis, 42 cases in which the degree of the blood pressure controls was not described, and 168 cases which could not be judged, were excluded. In the other 2709 cases, the ratio of number of cases judged as “nearly well-controlled” or higher was calculated as the efficacy ratio. Accordingly, the efficacy ratio of the subject cases in the availability analysis was 84.8% (2298 cases/2709 cases).

hypertensive patients [2] = assay: Special investigation of combined use of cilnidipine and ARB: changes in systolic and diastolic blood pressure
Experimental: as §1, §2, §3, §4, §5
Table 7 and FIG. 2 show the number of cases for which the blood pressure was measured, and the changes in the measured values of systolic BP, diastolic BP, and heart rate were measured at the following time points: before starting the combined administration, 4 weeks, 8 weeks, and 12 weeks after starting the combined administration, and the last measurement, […] administration, n=2919). […] Then, it continued to slowly decrease, and the a stable change was seen up to 12 weeks after the start.

hypertensive patients [3] = assay: Special investigation of combined use of cilnidipine and ARB: changes in heart rate; conditions: for heart rate (beat/min.) last meas., ave.: named ARB + 10 mg cilnidipine after switch from 5 mg amlodipine, 12 weeks or later to the last measurement; for heart rate (beat/min.) last meas.: named ARB + cilnidipine 10 mg, last measurement; for heart rate (beat/min.) last meas. / heart rate (beat/min.) start. admin., ave. / heart rate (beat/min.) start admin.: doses unchanged; for heart rate (beat/min.) 12th wk aft admin.: named ARB + cilnidipine only, 12 weeks after starting the combined administration; for heart rate (beat/min.) start. admin., ave.: on named ARB + 5 mg amlodipine, at switch of amlodipine to 10 mg cilnidipine; for heart rate (beat/min.) start admin.: on named ARB alone (candesartan 8, valsartan 80, losartan 50, telmisartan 40 mg) at start of adding cilnidipine 10 mg; for heart rate (beat/min.) upon start. admin.: on named ARB alone, before cilnidipine was additionally administered
Experimental: as §1, §2, §3, §4, §5
Table 7 and FIG. 2 show the number of cases for which the blood pressure was measured, and the changes in the measured values of systolic BP, diastolic BP, and heart rate were measured at the following time points: before starting the combined administration, 4 weeks, 8 weeks, and 12 weeks after starting the combined administration, and the last measurement, which was 222.43 days in average from the start of the combined administration, n=2919). […] Then, it continued to slowly decrease, and the a stable change was seen up to 12 weeks after the start.

[4] = named ARB + 10 mg cilnidipine after switch from 5 mg amlodipine, 12 weeks or later to the last measurement
[5] = named ARB + cilnidipine 10 mg, doses unchanged, last measurement, 211.43 ± 133.43 day after starting the combined use
[6] = named ARB + cilnidipine only, 12 weeks after starting the combined administration
[7] = on named ARB + 5 mg amlodipine, at switch of amlodipine to 10 mg cilnidipine, doses unchanged
[8] = on named ARB alone (candesartan 8, valsartan 80, losartan 50, telmisartan 40 mg) at start of adding cilnidipine 10 mg, doses unchanged
[9] = on named ARB alone, before cilnidipine was additionally administered

Structure (SMILES) | efficacy ratio (%) (hypertensive patients [1]) | diastolic BP (hypertensive patients [2]; [4]) [mmHg] | systolic BP (hypertensive patients [2]; [4]) [mmHg] | diastolic BP (hypertensive patients [2]; [5]) [mmHg] | systolic BP (hypertensive patients [2]; [5]) [mmHg] | diastolic BP (hypertensive patients [2]; [6]) [mmHg] | systolic BP (hypertensive patients [2]; [6]) [mmHg] | diastolic BP (hypertensive patients [2]; [7]) [mmHg] | systolic BP (hypertensive patients [2]; [7]) [mmHg] | diastolic BP (hypertensive patients [2]; [8]) [mmHg] | systolic BP (hypertensive patients [2]; [8]) [mmHg] | diastolic BP (hypertensive patients [2]; [9]) [mmHg] | systolic BP (hypertensive patients [2]; [9]) [mmHg] | heart rate (beat/min.) last meas., ave. (hypertensive patients [3]) [beat/min.] | heart rate (beat/min.) last meas. (hypertensive patients [3]) [beat/min.] | heart rate (beat/min.) 12th wk aft admin. (hypertensive patients [3]) [beat/min.] | heart rate (beat/min.) start. admin., ave. (hypertensive patients [3]) [beat/min.] | heart rate (beat/min.) start admin. (hypertensive patients [3]) [beat/min.] | heart rate (beat/min.) upon start. admin. (hypertensive patients [3]) [beat/min.]
CCOc1nc2cccc(C(=O)O)c2n1Cc1ccc(-c2ccccc2-c2nnn[nH]2)cc1 [candesartan] | 85.5 | 78.58 | 140.96 | 79.81 ± 12.72 | 141.02 ± 17.36 | 79.81 ± 12.72 | 141.29 ± 17.02 | 82.90 | 152.10 | 89.59 ± 14.80 | 164.98 ± 16.35 | 89.59 ± 14.80 | 163.78 ± 17.52 | 72.58 | 72.47 ± 11.14 | 72.66 ± 11.86 | 75.54 | 74.19 ± 10.96 | 75.14 ± 11.48
CCCCc1nc(Cl)c(CO)n1Cc1ccc(-c2ccccc2-c2nn[nH]n2)cc1 [losartan] | 89.8 | 79.78 | 138.22 | 79.32 ± 9.82 | 137.74 ± 15.19 | 79.45 ± 9.20 | 139.52 ± 14.43 | 82.00 | 150.35 | 90.40 ± 10.35 | 161.84 ± 16.13 | 88.67 ± 9.91 | 160.78 ± 14.13 | 72.44 | 73.66 ± 9.49 | 73.95 ± 7.68 | 72.00 | 74.13 ± 8.98 | 73.81 ± 8.29
CCCc1nc(C(C)(C)O)c(C(=O)O)n1Cc1ccc(-c2ccccc2-c2nnn[nH]2)cc1 [olmesartan] | 100.0 |  |  |  |  |  |  |  |  |  |  |  |  |  |  |  |  |  | 
CCCc1nc2c(C)cc(-c3nc4ccccc4n3C)cc2n1Cc1ccc(-c2ccccc2C(=O)O)cc1 [telmisartan] | 88.0 | 83.08 | 147.23 | 80.49 ± 12.78 | 138.89 ± 15.89 | 80.70 ± 11.71 | 143.64 ± 12.53 | 86.15 | 155.00 | 93.52 ± 10.84 | 163.00 ± 17.32 | 90.94 ± 12.27 | 161.33 ± 12.62 | 71.00 | 72.12 ± 9.42 | 73.09 ± 9.29 | 70.00 | 74.24 ± 11.55 | 74.95 ± 12.70
CCCCC(=O)N(Cc1ccc(-c2ccccc2-c2nnn[nH]2)cc1)[C@H](C(=O)O)C(C)C [valsartan] | 86.0 | 80.74 | 140.67 | 80.62 ± 10.40 | 140.75 ± 15.61 | 79.31 ± 10.42 | 138.32 ± 14.28 | 89.36 | 158.15 | 91.43 ± 11.20 | 160.65 ± 16.04 | 91.50 ± 10.58 | 160.65 ± 15.20 | 75.86 | 72.89 ± 10.20 | 71.65 ± 9.38 | 77.18 | 74.08 ± 10.41 | 73.22 ± 9.51
